Consider one compound from PMC8736263 (European journal of pharmacology, 2021).

Structures are written as SMILES.

As a reminder, the Ki is a dissociation constant, usually derived from enzyme kinetics or from competition with a known ligand.

Assay [1] has as its target T1, sigma-2 receptor/transmembrane protein 97 (TMEM97) (Rattus norvegicus, UniProt Q5U3Y7).
T1 sequence (Q5U3Y7 1-176): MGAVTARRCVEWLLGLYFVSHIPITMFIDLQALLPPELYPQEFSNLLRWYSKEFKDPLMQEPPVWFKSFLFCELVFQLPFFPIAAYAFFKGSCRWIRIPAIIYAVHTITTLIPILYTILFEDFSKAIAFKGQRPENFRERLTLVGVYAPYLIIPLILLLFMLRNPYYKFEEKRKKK
As to the kind of experiment: radioligand competition with [3H]DTG plus […]. The format is binding.

Another assay addresses sigma-1 receptor (Rattus norvegicus, UniProt Q9R0C9). Kind of assay: radioligand competition with [3H]-. The format is binding. For orientation: Loss of bound radioactivity is the signal in a displacement assay; it reports binding, not function.

Sequence of sigma-1 receptor (Q9R0C9 whole entry): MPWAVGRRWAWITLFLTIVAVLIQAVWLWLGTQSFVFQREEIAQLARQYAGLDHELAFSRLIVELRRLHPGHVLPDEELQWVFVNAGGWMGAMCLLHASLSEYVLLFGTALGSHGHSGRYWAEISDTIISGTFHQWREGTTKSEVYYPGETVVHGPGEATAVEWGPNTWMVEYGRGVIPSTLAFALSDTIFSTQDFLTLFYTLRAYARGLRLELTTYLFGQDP

Regarding `O=c1oc2cc(NC(=S)Nc3ccc4c(c3)oc(=O)n4CCCCN3CCN(c4ccc(F)cc4)CC3)ccc2n1CCCCN1CCN(c2ccc(F)cc2)CC1` [MAM03055A, 1,3-bis(3-(4-(4-(4-fluorophenyl)piperazin-1-yl)butyl)-2-oxo-2,3-dihydrobenzo[d]oxazol-6-yl)thiourea], the values for the Ki (in assay [1]; on sigma-1 receptor) were 55.9 nM and 3370 nM, respectively.
